The values that follow are results of earlier work, collected in patent US20230129072A1, “SYSTEM, PRODUCT AND METHOD FOR MAINTAINING THE VAGINAL MICROBIOME” (VAGINAL BIOME SCIENCE, INC., priority 2021, published 2023).

Series [1] has as its system herpes simplex virus (HSV-2). To be noted: after a single exposure.

`CC(O)CO` (stereo not drawn) [propylene glycol]: the “susceptibility to herpes simplex virus (HSV-2)” value in series [1] is recorded as “markedly increased susceptibility”. Take polyethylene glycol (PEG-8): the “susceptibility to herpes simplex virus (HSV-2)” value in series [1] is recorded as “markedly increased susceptibility”. As for nonoxynol-9 [Example N9], in the series with Lactobacilli spp., the “toxicity to beneficial Lactobacilli spp.” value was “toxic”.
